Data reported in the NIST ThermoML archive (doi:10.1016/j.fluid.2015.09.003).
Numbers after ± are expanded uncertainties.

Assay: activity coefficient (dimensionless); of the first substance listed, at infinite dilution; xn = mol fraction of the nth substance listed
Details: 101 kPa, Liquid, Chromatography, x1 = 0

## CC(=O)C(C)C [3-methyl-2-butanone] + CCOS(=O)(=O)[O-].CC[n+]1cccc(C)c1
333.2 K
  activity coefficient: 4.51 ± 0.21
343.15 K
  activity coefficient: 4.62 ± 0.21
353.09 K
  activity coefficient: 4.73 ± 0.22
363.06 K
  activity coefficient: 4.79 ± 0.22
372.99 K
  activity coefficient: 4.95 ± 0.23

## CC(=O)CC(C)C [4-methylpentan-2-one] + CCOS(=O)(=O)[O-].CC[n+]1cccc(C)c1
333.2 K
  activity coefficient: 6.97 ± 0.32
343.15 K
  activity coefficient: 6.99 ± 0.32
353.08 K
  activity coefficient: 7.03 ± 0.32
363.06 K
  activity coefficient: 7.05 ± 0.32
372.99 K
  activity coefficient: 7.12 ± 0.33

## CC(C)=O [acetone] + CCOS(=O)(=O)[O-].CC[n+]1cccc(C)c1
323.24 K
  activity coefficient: 1.78 ± 0.08
333.19 K
  activity coefficient: 1.8 ± 0.08
343.16 K
  activity coefficient: 1.84 ± 0.08
353.11 K
  activity coefficient: 1.88 ± 0.08
363.08 K
  activity coefficient: 1.92 ± 0.08
372.99 K
  activity coefficient: 1.98 ± 0.09

## CCCCO [butan-1-ol] + CCOS(=O)(=O)[O-].CC[n+]1cccc(C)c1
353.1 K
  activity coefficient: 1.13 ± 0.03
363.06 K
  activity coefficient: 1.1 ± 0.03
373 K
  activity coefficient: 1.08 ± 0.03

## CCC(C)O (stereo not given) [butan-2-ol] + CCOS(=O)(=O)[O-].CC[n+]1cccc(C)c1
333.19 K
  activity coefficient: 1.27 ± 0.04
343.14 K
  activity coefficient: 1.25 ± 0.04
353.1 K
  activity coefficient: 1.24 ± 0.04
363.05 K
  activity coefficient: 1.23 ± 0.04
373 K
  activity coefficient: 1.23 ± 0.04

## CCC(C)=O [butanone] + CCOS(=O)(=O)[O-].CC[n+]1cccc(C)c1
323.25 K
  activity coefficient: 2.7 ± 0.12
333.2 K
  activity coefficient: 2.74 ± 0.12
343.16 K
  activity coefficient: 2.78 ± 0.13
353.1 K
  activity coefficient: 2.84 ± 0.13
363.07 K
  activity coefficient: 2.88 ± 0.13
372.99 K
  activity coefficient: 2.95 ± 0.13

## CCO [ethanol] + CCOS(=O)(=O)[O-].CC[n+]1cccc(C)c1
333.18 K
  activity coefficient: 0.6 ± 0.03
343.13 K
  activity coefficient: 0.59 ± 0.03
353.1 K
  activity coefficient: 0.58 ± 0.03
363.09 K
  activity coefficient: 0.58 ± 0.03
373.01 K
  activity coefficient: 0.57 ± 0.03

## CO [methanol] + CCOS(=O)(=O)[O-].CC[n+]1cccc(C)c1
323.26 K
  activity coefficient: 0.32 ± 0.04
333.2 K
  activity coefficient: 0.33 ± 0.04
343.15 K
  activity coefficient: 0.33 ± 0.04
353.11 K
  activity coefficient: 0.33 ± 0.04
363.07 K
  activity coefficient: 0.33 ± 0.04
373 K
  activity coefficient: 0.33 ± 0.04

## CCCCCO [pentan-1-ol] + CCOS(=O)(=O)[O-].CC[n+]1cccc(C)c1
353.09 K
  activity coefficient: 1.66 ± 0.07
363.05 K
  activity coefficient: 1.59 ± 0.06
373.01 K
  activity coefficient: 1.52 ± 0.06

## CCCC(C)=O [pentan-2-one] + CCOS(=O)(=O)[O-].CC[n+]1cccc(C)c1
333.2 K
  activity coefficient: 4.35 ± 0.2
343.15 K
  activity coefficient: 4.38 ± 0.2
353.12 K
  activity coefficient: 4.44 ± 0.2
363.05 K
  activity coefficient: 4.46 ± 0.2
372.99 K
  activity coefficient: 4.52 ± 0.21

## CCCO [propan-1-ol] + CCOS(=O)(=O)[O-].CC[n+]1cccc(C)c1
333.18 K
  activity coefficient: 0.81 ± 0.03
343.13 K
  activity coefficient: 0.8 ± 0.03
353.1 K
  activity coefficient: 0.8 ± 0.03
363.06 K
  activity coefficient: 0.79 ± 0.03
373 K
  activity coefficient: 0.78 ± 0.03

## CC(C)O [propan-2-ol] + CCOS(=O)(=O)[O-].CC[n+]1cccc(C)c1
323.24 K
  activity coefficient: 1 ± 0.03
333.19 K
  activity coefficient: 0.97 ± 0.03
343.14 K
  activity coefficient: 0.96 ± 0.03
353.09 K
  activity coefficient: 0.94 ± 0.03
363.06 K
  activity coefficient: 0.93 ± 0.03
373 K
  activity coefficient: 0.92 ± 0.03
